Here are results for 2 compounds from patent US20260227303A1, “SYSTEMS AND METHODS FOR MEASURING PARTICLE SIZE IN TISSUE AND TURBID MEDIA” (The General Hospital Corporation, priority 2023, published 2026).

This assay concerns platelets in whole blood. The experiment in a line: Platelet function testing: laser speckle particle sizing of platelet aggregate size in lysed whole blood. Format: cell-based, human.

Protocol: To prepare the 4660 μM CPD stock solution, a Plavix tablet (e.g., 75 mg, Bristol-Meyer Squibb) was crushed to powder, mixed with 50 ml of deionized water, sonicated for 10 minutes, and incubated at 50° C. in a water bath for 3 minutes. Following institutional review board (IRB) approval, de-identified blood specimens from two patients undergoing routine coagulation testing were collected in 0.105 M sodium citrate vacutainer system (e.g., Becton & Dickinson, Co., Franklin Lakes, NJ, USA) from the MGH special coagulation laboratory. The specimen was divided into four samples of 66 μl. The first sample (control) was mixed with 20 μl of saline. The second sample was mixed 5 μl of saline and 10 μl of LB. The third sample was mixed with 5 μl of saline and 10 μl of LB, and 5 μl ADP stock solution (e.g., 5 μM, Helena Laboratories, Beaumont, TX, USA). Finally, the 4th and last sample was mixed 10 μl of LB 5 μl of ADP and 5 μl of diluted CPD (5 μM). The samples were loaded in imaging chambers and speckle image acquisition started promptly. For each of the specimens, both the parallel and perpendicularly polarized speckle frames were captured for 1 second, at 750 fps.
The third sample entailed 66 μl of whole blood plus 5 μl of PBS, 10 μl of lysis buffer, and 5 μl Adenosine diphosphate (ADP), a platelet agonist to initiate platelet aggregation. […]

In the case of `Nc1ncnc2c1ncn2[C@@H]1O[C@H](COP(=O)(O)OP(=O)(O)O)[C@@H](O)[C@H]1O` [ADP, Adenosine diphosphate], the “estimated particle size (average radius)” value (66 μl whole blood + 5 μl PBS/saline + 10 μl RBC lysis buffer + 5 μl ADP, lysed blood without ADP 360 nm, increase likely reflects platelet aggregation) is 1.8 μm. `COC(=O)[C@H](c1ccccc1Cl)N1CCc2sccc2C1` [CPD, clopidogrel bisulphate]: where the note is “66 μl whole blood + 10 μl RBC lysis buffer + 5 μl ADP + 5 μl CPD, reverts to the lysed-blood level (360 nm), potentially indicating disaggregation of platelets”, the “estimated particle size (average radius)” value was 367 nm.
